Consider 2 compounds from US6350744B1, “Compounds having cytokine inhibitory activity” (Merck & Co., Inc., priority 1998, dated 2002).

Molecules are shown by their SMILES.

Usually melting point stands for the temperature of the solid-liquid transition. As for `CN1CCC(c2cc(-c3ccncc3)c(-c3cccc(C(F)(F)F)c3)nn2)CC1` [Example 11, 3-(3-trifluoromethylphenyl)-4(pyridine-4-yl)-6-(N-methylpiperidin-4-yl)pyridazine], the melting point lay within 188 to 189 °C.
With `FC(F)(F)c1cccc(-c2cc(C3CCNCC3)nnc2-c2ccncc2)c1` [Example 28, 3-(pyridine-4-yl)-4-(3-trifluoromethylphenyl)-6-(piperidin-4-yl)pyridazine] the figure was 148 to 150 °C.
